Data: patent US8580965B2, “Substituted sulfonamide compounds” (Gruenenthal GmbH, priority 2006, dated 2013)
Counter-ions that a name gives are not always drawn.

Legend:
[1] = target: T1, human B1R receptor (bradykinin 1 receptor) (Homo sapiens, UniProt P46663); experiment: FLIPR Ca2+ assay (Fluo-4) on CHO K1 cells stably transfected with the human B1R gene; % activation and % inhibition at 10 μM; format: cell-based; conditions: test substance 10 μM; CHO K1 hB1R cells; Ca2+ inflow after 0.5 nM Lys-Des-Arg9-bradykinin; hydrochloride
T1 construct: host or cells: CHO K1 cells (hB1R cells)
T1 sequence (P46663 1-353): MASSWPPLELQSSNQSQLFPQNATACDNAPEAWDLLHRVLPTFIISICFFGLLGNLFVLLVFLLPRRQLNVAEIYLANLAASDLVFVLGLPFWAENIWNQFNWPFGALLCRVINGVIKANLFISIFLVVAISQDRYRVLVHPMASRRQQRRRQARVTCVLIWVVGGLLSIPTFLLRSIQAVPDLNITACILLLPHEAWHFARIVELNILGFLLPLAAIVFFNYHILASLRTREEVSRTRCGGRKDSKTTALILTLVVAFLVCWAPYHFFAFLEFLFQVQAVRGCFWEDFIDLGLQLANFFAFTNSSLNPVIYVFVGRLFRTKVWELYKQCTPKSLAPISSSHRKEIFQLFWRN
In short: (§1)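 CHO K1 cells stably expressing human or rat B1R, Fluo-4 loaded, read by FLIPR (peak fluorescence). Compound at 10 µM first gives % activation versus agonist; after 10 min, agonist (human: 0.5 nM Lys-Des-Arg9-bradykinin; rat: 100 nM Des-Arg9-bradykinin) gives % inhibition relative to maximal inhibition.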

[2] = target: T2, B1R receptor of the rat (bradykinin 1 receptor) (Rattus norvegicus, UniProt P97583); experiment: FLIPR Ca2+ assay (Fluo-4) on CHO K1 cells stably transfected with the B1R gene of the rat; % activation and % inhibition at 10 μM; format: cell-based; conditions: test substance 10 μM; CHO K1 rB1R cells; Ca2+ inflow after 100 nM Des-Arg9-bradykinin; hydrochloride
T2 construct: host or cells: CHO K1 cells (rB1R cells)
T2 sequence (P97583 1-337): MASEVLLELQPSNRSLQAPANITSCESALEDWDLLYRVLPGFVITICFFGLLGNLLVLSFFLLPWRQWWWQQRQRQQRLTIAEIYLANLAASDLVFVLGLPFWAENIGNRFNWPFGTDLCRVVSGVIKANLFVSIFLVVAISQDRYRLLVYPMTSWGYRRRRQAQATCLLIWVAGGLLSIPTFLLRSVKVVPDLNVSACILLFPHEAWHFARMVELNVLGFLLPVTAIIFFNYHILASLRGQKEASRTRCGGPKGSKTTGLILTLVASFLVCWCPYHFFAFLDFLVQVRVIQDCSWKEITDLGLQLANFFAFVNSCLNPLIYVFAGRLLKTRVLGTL
In short: as §1

[3] = system: formalin-induced nociceptive reaction (phase 2); experiment: Formalin test mouse (phase 2, chronic pain component); format: in vivo; conditions: phase 2 (21 to 24 min after formalin), i.v., 10 mg/kg, 5 min before formalin, change in percent compared with vehicle control
Method: The formalin test (Dubuisson, D. and Dennis, S. G., 1977, Pain, 4, 161-174) represents a model for both acute and chronic pain. By means of a single formalin injection into the dorsal side of a rear paw, a biphasic nociceptive reaction is induced in freely mobile test animals; the reaction is detected by observing three behavior patterns which are clearly distinguishable from one another. The reaction is two-phase: phase 1=immediate reaction (duration up to 10 min., shaking of the paw, licking), phase 2=late reaction (after a rest phase; likewise shaking of the paw, licking; duration up to 60 min.). […] In the studies described here, the chronic pain component (phase 2) has been evaluated.
Formalin in a volume of 20 μl and a concentration of 1% is administered subcutaneously into the dorsal side of the right rear paw of each animal. The specific changes in behavior, such as lifting, shaking or licking of the paw (score 3, Dubuisson & Dennis, 1977), are observed and recorded in the observation period of 21 to 24 min following the formalin injection.
The behavior of the animals after administration of the substance (n=10 per dose of substance) was compared with a control group which received vehicle (n=10). Based on the quantification of the pain behavior, the activity of the test substance in the formalin test was determined as the change, in percent, compared with the control. […]

Structure (SMILES): COc1cc(C)c(S(=O)(=O)N2CCCCC2COCC(=O)N2CCC(O)(c3cccnc3)CC2)c(C)c1 (stereo not drawn) [Example 87, 1-(4′-hydroxy-3′,4′,5′,6′-tetrahydro-2′H-[3,4′]bipyridinyl-1′-yl)-2-[1-(4-methoxy-2,6-dimethyl-phenylsulfonyl)-piperidin-2-ylmethoxy]-ethanone; hydrochloride]
- B1R antagonism, human [10 μM] % inhibition [1]: 101.8%
- B1R antagonism, rat [10 μM] % inhibition [2]: 101.93%
- Substance action: antinociception [3]: 23% antinociception
